Like-named read-outs stand apart in the source and are kept apart here.
What was measured:
[1] = tested on: OCI-LY19 human diffuse large B-cell non-Hodgkin's lymphoma xenograft; format: in vivo; settings: for Median Tumor Volume Diff.: Day 21 minus Day 0
Experimental: The therapeutic in vivo efficacy of Compound 1 was evaluated in SU60 colorectal cancer, KYSE-150 esophageal cancer, COH70 triple-negative breast cancer, GXA-3036 gastric adenocarcinoma and OCI-LY19 Diffuse Large B-Cell Non-Hodgkin's Lymphoma xenograft models. In all studies, efficacy was determined based on percent tumor growth inhibition (TGI), differences in mean tumor growth, and statistical assessment of differences in net tumor volume distributions on the day of TGI analysis between control and treated animals. Tolerability was assessed based on differences in mean body weights between control and treated animals over the course of the study.
The in vivo efficacy and tolerability of Compound 1, administered orally as the lysine salt form suspended in a 0.5% MC vehicle, were evaluated in female C.B-17 severe combined immunodeficient (scid) mice inoculated subcutaneously with OCI-LY19 tumor cells established from the bone marrow of a patient with diffuse large B-cell non-Hodgkin's lymphoma (DLBCL), stage 4B, at relapse. Each mouse was inoculated subcutaneously in the right flank with 5×10^6 OCI-LY19 tumor cells (0.1 ml) suspended in 50% Matrigel. When the average tumor size reached ˜165 mm3, test animals were randomized into 6 groups consisting of 8 mice per group and treatments were initiated. […] Compound 1-treated mice received the Compound 1 lysine salt form suspended in vehicle at 5, 15, or 50 mg/kg QD or at 25 mg/kg BID on the 3 on/4 off schedule. TGI was determined on Day 21 as (1−Difftreated/Diffcontrol)×100. Individual tumors were measured on the days shown in two dimensions using a caliper, and the tumor volumes (TV) in mm3 were calculated using the formula: TV=0.5 a×b2, where a and b are the long and short tumor diameters in mm, respectively. Mean tumor volumes±SEM were calculated and plotted versus days of dosing (FIG. 15 left panel). Body weights were measured twice weekly. Body weights±SEM were calculated and plotted versus days of dosing (FIG. 15 right panel). The difference in mean net tumor volumes on the day of TGI analysis for treated versus control animals was evaluated statistically using one-way ANOVA followed by Dunnett's multiple comparisons test; Adjusted p-values are shown where a calculated probability (p)≤0.05 was considered statistically significant.

[2] = tested on: erythroid hematopoietic progenitor cells derived from human bone marrow; test: erythroid colony formation of hematopoietic progenitor cells; format: cell-based
Experimental: Compound 1 was evaluated for its effects on proliferation of erythroid and myeloid hematopoietic progenitor cells derived from human bone marrow at […] Technologies Inc. (Vancouver, BC, Canada).
Cells were thawed rapidly at 37° C. into DNAse I and then diluted in 10 mL of Iscove's Modified Dulbecco's medium containing 2% fetal bovine serum (IMDM+2% FBS) and washed by centrifugation (1200 rpm for 10 minutes at room temperature). The supernatant was discarded and the cell pellet resuspended in a known volume of IMDM+2% FBS. A nucleated cell count (3% glacial acetic acid) and viability assessment (trypan blue exclusive test) were performed.
Compound 1 and positive control (panobinostat) were diluted in DMSO and tested at concentrations ranging from 0.002 μM to 5 μM in final media. These dilutions provided the appropriate final test concentrations required for the test and control articles ([…], and 0.002 μM).
Test and control articles were incubated with human bone marrow hematopoietic progenitor cells. After 14 days, cell colonies were assessed.
To calculate the concentration of 50% and 90% inhibition of colony growth (IC50 and IC90) for each test article, a dose response curve was generated plotting the log of the test article concentration versus the percentage of control colony growth using GraphPad Prism. […] The IC50 and IC90 values for both test and control articles were derived from an interpolation of the curve fit. In cases where the IC50/90 value reported by GraphPad Prism is a value beyond the range of concentrations that were actually tested, if this value is more than 4 times the highest concentration tested, or where GraphPad Prism cannot calculate an IC50/90 value, notations of >5 μM (for test article compound 1) are used.

[3] = tested on: FS53 patient-derived breast cancer organoid model; test: organoid colony formation assay, FS53; format: cell-based, human
Experimental: The IC50 values for Compound 1 inhibition of colony formation and viability were determined for the patient-derived colon cancer organoid models: SU60, T002C, SU62, SU34, SU103, T03SC, and SU106, patient-derived pancreatic cancer organoid models PA016SF, PA0143F, T016P, and T028P, and a patient-derived breast cancer organoid model FS5S3.
Colony formation and viability assays were performed in multiwell plates seeded with organoids using an in vitro culture system composed of a Matrigel layer, media containing a defined set of growth factors, and co-culture with Wnt3 A-secreting mouse embryonic fibroblasts. Assays were initiated by adding either DMSO as a negative control, or an inhibitor panobinostatat 100×IC50 concentration as a positive control, or serially diluted Compound 1. The cultures were incubated for 168 or 144 hours after which the number of viable organoids in each test well was assessed respectively using one of two detection methods: CTG or staining with calcein-AM followed by imaging and colony counting. Colony count or viability of cells treated with compound 1 was expressed as a percent of the negative control. Aggregated Percent of Control values were plotted against the corresponding Compound 1 concentration and the absolute IC50 value was determined from a non-linear regression curve as the concentration where inhibition was 50% of the control.

Structure (SMILES): CC(C)c1ccc(N(C)c2ccc3c(c2)OCC[C@H]3CNc2cnccc2C(=O)O)cc1 [Compound 1, 3-({[(4R)-7-{methyl[4-(propan-2-yl)phenyl]amino}-3,4-dihydro-2H-1-benzopyran-4-yl]methyl}amino)pyridine-4-carboxylic acid]
- % TGI ([1]; 5 mg/kg PO QD 3 on/4 off, Day 21, 5 mg/kg): 55%
- Median Tumor Volume Diff. ([1]; 5 mg/kg PO QD 3 on/4 off): 920 mm^3
- % TGI ([1]; 15 mg/kg PO QD 3 on/4 off, Day 21, 15 mg/kg): 83%
- Median Tumor Volume Diff. ([1]; 15 mg/kg PO QD 3 on/4 off): 345 mm^3
- % TGI ([1]; 25 mg/kg PO BID 3 on/4 off, Day 21, 25 mg/kg): 102%
- Median Tumor Volume Diff. ([1]; 25 mg/kg PO BID 3 on/4 off): −32 mm^3
- % TGI ([1]; 50 mg/kg PO QD 3 on/4 off, Day 21, 50 mg/kg): 90%
- Median Tumor Volume Diff. ([1]; 50 mg/kg PO QD 3 on/4 off): 196 mm^3
- tolerability (mean body weights) ([1]; female C.B-17 scid mice, all Compound 1 regimens): well-tolerated
- Median Tumor Volume Day 21 ([1]; female C.B-17 scid mice, lysine salt 5 mg/kg PO QD 3 on/4 off): 1088 mm^3
- Median Tumor Volume Day 21 ([1]; female C.B-17 scid mice, lysine salt 15 mg/kg PO QD 3 on/4 off): 512 mm^3
- Median Tumor Volume Day 21 ([1]; female C.B-17 scid mice, lysine salt 25 mg/kg (free acid equivalents) PO BID 3 on/4 off): 135 mm^3
- Median Tumor Volume Day 21 ([1]; female C.B-17 scid mice, lysine salt 50 mg/kg PO QD 3 on/4 off): 361 mm^3
- IC50 ([2]; 336 h, human bone marrow progenitor cells, 14 days, read-out: IC50, inhibition of erythroid colony formation): > 5 µM
- IC90 ([2]; 336 h, human bone marrow progenitor cells, colony growth after 14 days): > 5 µg/mL
- IC50 ([2]; 336 h, human bone marrow progenitor cells, colony growth after 14 days, read-out: Erythroid IC50): > 5 µg/mL
- concentrations at which colony morphology (size and density) was slightly compromised ([2]; erythroid derived colonies): ≥ 1.67 μM
- effect on colony formation compared to 0.1% DMSO ([2]; progenitor cells from normal human bone marrow, p>0.01): no significant effect
- IC50 ([3]; FS53 human breast carcinoma model): 13.6 µM
- IC50 ([3]; FS53 human breast carcinoma organoid, 144 hrs, Colony Counts): 13.6 µM

Source: patent US20250025451A1, “TREATMENT OF CANCER WITH KDM4 INHIBITORS” (Celgene Corporation, priority 2021, published 2025)
